Source: patent US11034718B2, “C-3 novel triterpenone with C-17 reverse amide derivatives as HIV inhibitors” (HETERO LABS LIMITED, priority 2015, dated 2021)
Read-outs that look alike come from different tables or passages of the source.

Key:
Format in all cases: cell-based
HIV-1 strain 92HT599 = experiment: Antiviral activity against HIV-1 strain 92HT599 in MT2 cells (p24 estimation); conditions: HIV-1 92HT599, ~96 hours
How it was run: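 Percent inhibition versus vehicle controls came from p24 quantified in supernatant aliquots. These were taken after ~96 h incubation of compound (DMSO ≤1%) with MT2 cells infected at 10 TCID50/30,000 cells.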

HIV-1 pNL4-3 WT = experiment: Antiviral activity against pNL4-3/WT strain in MT4 cells (p24 estimation); conditions: Human immunodeficiency virus 1, MT4, 96 h, read-out: pNL4-3 WT IC50
Experimental: (§1) Example 78: Evaluation of Compounds Antiviral Activity Against pNL4-3/WT & V7A Strains in MT4 Cells
(§2) MT4 cells were Transfected with HIV-1 Plasmid (pNL4-3-WT & V7A) (Cells were incubating with required number of TCID50 of HIV-1 for 1.5 h at 37° C.). After infection, the infected cells were plated at the concentration of 3×10^4 cells per well in 96 well plate. Test compound was added to the test plate in defined format with the final concentration of DMSO is not more than 1%. Incubation was carried out in CO2 incubator for 4 days for viral infection. At the end of incubation period an aliquot from each well was taken for p24 estimation. p24 estimation was carried out using Advance biosciences kit as per the procedure detailed by supplier.

HIV-1 pNL4-3 V7A = experiment: Antiviral activity against pNL4-3/V7A strain in MT4 cells (p24 estimation); conditions: Human immunodeficiency virus 1, MT4, 96 h, read-out: pNL4-3 V7A IC50
Experimental: as §1, §2

[1] = Human immunodeficiency virus 1, 0% serum binding assay, read-out: IC50 0% serum
[2] = Human immunodeficiency virus 1, 40% serum binding assay, read-out: IC50 40% serum

Structure (SMILES) | IC50 (HIV-1 strain 92HT599; [1]) | IC50 (HIV-1 strain 92HT599; [2]) | IC50 (HIV-1 pNL4-3 WT) | IC50 (HIV-1 pNL4-3 V7A)
Cc1ccc(C(=O)NC2(C(=O)N[C@@]34CC[C@]5(C)[C@H](CC[C@@H]6[C@@]7(C)CC[C@H](OC(=O)[C@H]8C[C@@H](C(=O)O)C8(C)C)C(C)(C)[C@@H]7CC[C@]65C)C3=C(C(C)C)C(=O)C4)CC2)cn1 [Example 38, (1R,3S)-3-((((3aR,5aR,5bR,7aR,9S,11aR,11bR,13aS)-1-isopropyl-5a,5b,8,8,11a-pentamethyl-3a-(1-(6-methylnicotinamido)cyclopropane-1-carbox amido)-2-oxo-3,3a,4,5,5a,5b,6,7,7a,8,9,10,11,11a,11b,12,13,13a-octadecahydro-2H-cyclopenta[a]chrysen-9-yl)oxy)carbonyl)-2,2-dimethylcyclobutane-1-carboxylic acid] | < 3 nM | < 50 nM | < 5 nM | < 10 nM
CC(C)C1=C2[C@H]3CC[C@@H]4[C@@]5(C)CC[C@H](OC(=O)[C@H]6C[C@@H](C(=O)O)C6(C)C)C(C)(C)[C@@H]5CC[C@@]4(C)[C@]3(C)CC[C@@]2(NC(=O)C2(NC(=O)c3ccc(F)cc3)CC2)CC1=O [Example 39, (1R,3S)-3-((((3aR,5aR,5bR,7aR,9S,11aR,11bR,13aS)-3a-(1-(4-fluorobenzamido)cyclopropane-1-carboxamido)-1-isopropyl-5a,5b,8,8,11a-pentamethyl-2-oxo-3,3a,4,5,5a,5b,6,7,7a,8,9,10,11,11a,11b,12,13,13a-octadecahydro-2H-cyclopenta[a]chrysen-9-yl)oxy)carbonyl)-2,2-dimethylcyclobutane-1-carboxylic acid] | < 3 nM | < 50 nM | 5.01 to 10 nM | 10 to 50 nM
Cc1ccc(C(=O)NC2(C(=O)N[C@@]34CC[C@]5(C)[C@H](CC[C@@H]6[C@@]7(C)CC[C@H](OC(=O)[C@H]8C[C@@H](C(=O)O)C8(C)C)C(C)(C)[C@@H]7CC[C@]65C)C3=C(C(C)C)C(=O)C4)CC2)cc1 [Example 40, (1R,3S)-3-((((3aR,5aR,5bR,7aR,9S,11aR,11bR,13aS)-1-isopropyl-5a,5b,8,8,11a-pentamethyl-3a-(1-(4-methylbenzamido)cyclopropane-1-carboxamido)-2-oxo-3,3a,4,5,5a,5b,6,7,7a,8,9,10,11,11a,11b,12,13,13a-octadecahydro-2H-cyclopenta[a]chrysen-9-yl)oxy)carbonyl)-2,2-dimethylcyclobutane-1-carboxylic acid] | < 3 nM | < 50 nM | < 5 nM | < 10 nM
CC(C)C1=C2[C@H]3CC[C@@H]4[C@@]5(C)CC[C@H](OC(=O)[C@@H]6C[C@H](C(=O)O)C6(C)C)C(C)(C)[C@@H]5CC[C@@]4(C)[C@]3(C)CC[C@@]2(NC(=O)C2(NC(=O)c3ccc(Cl)cc3)CC2)CC1=O [Example 41, (1S,3R)-3-((((3aR,5aR,5bR,7aR,9S,11aR,11bR,13aS)-3a-(1-(4-chlorobenzamido)cyclopropane-1-carboxamido)-1-isopropyl-5a,5b,8,8,11a-pentamethyl-2-oxo-3,3a,4,5,5a,5b,6,7,7a,8,9,10,11,11a,11b,12,13,13a-octadecahydro-2H-cyclopenta[a]chrysen-9-yl)oxy)carbonyl)-2,2-dimethylcyclobutane-1-carboxylic acid] | < 3 nM | < 50 nM | > 10 nM | 10 to 50 nM
CC(C)C1=C2[C@H]3CC[C@@H]4[C@@]5(C)CC[C@H](OC(=O)[C@H]6C[C@@H](C(=O)O)C6(C)C)C(C)(C)[C@@H]5CC[C@@]4(C)[C@]3(C)CC[C@@]2(NC(=O)C2(NC(=O)c3ccc(Cl)cc3)CCC2)CC1=O [Example 42, (1R,3S)-3-((((3aR,5aR,5bR,7aR,9S,11aR,11bR,13aS)-3a-(1-(4-chlorobenzamido)cyclobutane-1-carboxamido)-1-isopropyl-5a,5b,8,8,11a-pentamethyl-2-oxo-3,3a,4,5,5a,5b,6,7,7a,8,9,10,11,11a,11b,12,13,13a-octadecahydro-2H-cyclopenta[a]chrysen-9-yl)oxy)carbonyl)-2,2-dimethylcyclobutane-1-carboxylic acid] | < 3 nM | < 50 nM | 5.01 to 10 nM | < 10 nM
CC(C)C1=C2[C@H]3CC[C@@H]4[C@@]5(C)CC[C@H](OC(=O)[C@H]6C[C@@H](C(=O)O)C6(C)C)C(C)(C)[C@@H]5CC[C@@]4(C)[C@]3(C)CC[C@@]2(NC(=O)C2(NC(=O)c3ncccn3)CCC2)CC1=O [Example 44, (1R,3S)-3-((((3aR,5aR,5bR,7aR,9S,11aR,11bR,13aS)-1-isopropyl-5a,5b,8,8,11a-pentamethyl-2-oxo-3a-(1-(pyrimidine-2-carboxamido)cyclobutane-1-carboxamido)-3,3a,4,5,5a,5b,6,7,7a,8,9,10,11,11a,11b,12,13,13a-octadecahydro-2H-cyclopenta[a]chrysen-9-yl)oxy)carbonyl)-2,2-dimethylcyclobutane-1-carboxylic acid] | < 3 nM | 50 to 200 nM | > 10 nM | > 50 nM
CC(C)C1=C2[C@H]3CC[C@@H]4[C@@]5(C)CC[C@H](OC(=O)[C@H]6C[C@@H](C(=O)O)C6(C)C)C(C)(C)[C@@H]5CC[C@@]4(C)[C@]3(C)CC[C@@]2(NC(=O)C2(NC(=O)c3cccnc3N3CCOCC3)CCC2)CC1=O [Example 45, (1R,3S)-3-((((3aR,5aR,5bR,7aR,9S,11aR,11bR,13aS)-1-isopropyl-5a,5b,8,8,11a-pentamethyl-3a-(1-(2-morpholinonicotinamido)cyclobutane-1-carboxamido)-2-oxo-3,3a,4,5,5a,5b,6,7,7a,8,9,10,11,11a,11b,12,13,13a-octadecahydro-2H-cyclopenta[a]chrysen-9-yl)oxy)carbonyl)-2,2-dimethylcyclobutane-1-carboxylic acid] | 3.01 to 10 nM | < 50 nM | < 5 nM | 10 to 50 nM
Cc1ccc(C(=O)NC2(C(=O)N[C@@]34CC[C@]5(C)[C@H](CC[C@@H]6[C@@]7(C)CC[C@H](OC(=O)[C@H]8C[C@@H](C(=O)O)C8(C)C)C(C)(C)[C@@H]7CC[C@]65C)C3=C(C(C)C)C(=O)C4)CCCC2)cn1 [Example 47, (1R,3S)-3-((((3aR,5aR,5bR,7aR,9S,11aR,11bR,13aS)-1-isopropyl-5a,5b,8,8,11a-pentamethyl-3a-(1-(6-methylnicotinamido)cyclopentane-1-carboxamido)-2-oxo-3,3a,4,5,5a,5b,6,7,7a,8,9,10,11,11a,11b,12,13,13a-octadecahydro-2H-cyclopenta[a]chrysen-9-yl)oxy)carbonyl)-2,2-dimethylcyclobutane-1-carboxylic acid] | < 3 nM | < 50 nM | < 5 nM | < 10 nM
CC(C)C1=C2[C@H]3CC[C@@H]4[C@@]5(C)CC[C@H](OC(=O)[C@H]6C[C@@H](C(=O)O)C6(C)C)C(C)(C)[C@@H]5CC[C@@]4(C)[C@]3(C)CC[C@@]2(NC(=O)C(C)(C)NC(=O)c2ccc(S(C)(=O)=O)cc2)CC1=O [Example 51, (1R,3S)-3-((((3aR,5aR,5bR,7aR,9S,11aR,11bR,13aS)-1-isopropyl-5a,5b,8,8,11a-pentamethyl-3a-(2-methyl-2-(4-(methylsulfonyl)benzamido)propanamido)-2-oxo-3,3a,4,5,5a,5b,6,7,7a,8,9,10,11,11a,11b,12,13,13a-octadecahydro-2H-cyclopenta[a]chrysen-9-yl)oxy)carbonyl)-2,2-dimethylcyclobutane-1-carboxylic acid] | < 3 nM | < 50 nM | 5.01 to 10 nM | > 50 nM
CC(C)C1=C2[C@H]3CC[C@@H]4[C@@]5(C)CC[C@H](OC(=O)[C@H]6C[C@@H](C(=O)O)C6(C)C)C(C)(C)[C@@H]5CC[C@@]4(C)[C@]3(C)CC[C@@]2(NC(=O)C(C)(C)NC(=O)Cc2ccc(Cl)cc2)CC1=O [Example 53, (1R,3S)-3-((((3aR,5aR,5bR,7aR,9S,11aR,11bR,13aS)-3a-(2-(2-(4-chlorophenyl)acetamido)-2-methylpropanamido)-1-isopropyl-5a,5b,8,8,11a-pentamethyl-2-oxo-3,3a,4,5,5a,5b,6,7,7a,8,9,10,11,11a,11b,12,13,13a-octadecahydro-2H-cyclopenta[a]chrysen-9-yl)oxy)carbonyl)-2,2-dimethylcyclobutane-1-carboxylic acid] | < 3 nM | < 50 nM | < 5 nM | < 10 nM
CC(C)C1=C2[C@H]3CC[C@@H]4[C@@]5(C)CC[C@H](OC(=O)[C@H]6C[C@@H](C(=O)O)C6(C)C)C(C)(C)[C@@H]5CC[C@@]4(C)[C@]3(C)CC[C@@]2(NC(=O)C(C)(C)NC(=O)c2cnn3cccnc23)CC1=O [Example 54, (1R,3S)-3-((((3aR,5aR,5bR,7aR,9S,11aR,11bR,13aS)-1-isopropyl-5a,5b,8,8,11a-pentamethyl-3a-(2-methyl-2-(pyrazolo[1,5-a]pyrimidine-3-carboxamido)propanamido)-2-oxo-3,3a,4,5,5a,5b,6,7,7a,8,9,10,11,11a,11b,12,13,13a-octadecahydro-2H-cyclopenta[a]chrysen-9-yl)oxy)carbonyl)-2,2-dimethylcyclobutane-1-carboxylic acid] | < 3 nM | < 50 nM | < 5 nM | 10 to 50 nM
